Values after ≈ are worked out from the molar mass of the structure shown. Blank lines part the entries; values can stand above or below the molecule they belong to.
Experiments:
[1] = Solubility of finafloxacin in three magnesium chloride-containing solutions at various pH; assay type: physicochemical; conditions: for solubility: aqueous with cosolvent or surfactant or cyclodextrin
[2] = Solubility studies of finafloxacin monohydrochloride in aqueous solution with various salts; assay type: physicochemical
From the text: TABLE 1 below summarizes the results of solubility studies using finafloxacin monohydrochloride in aqueous solution with various salts at different concentrations. […] In particular, magnesium salts generated clear, colorless solutions at slightly acidic, physiologically-compatible pH ranges.

[3] = pH 7.4 in 0.1M phosphate buffer; cited from earlier work
[4] = Solubility studies of fluoroquinolones (0.3%) with ZnCl2, MgCl2 or CaCl2; conditions: quinolone 0.3%
[5] = TABLE 3A magnesium chloride-containing solution, final pH 5.73
[6] = TABLE 3A magnesium chloride-containing solution, final pH 6.23
[7] = TABLE 3A magnesium chloride-containing solution, final pH 6.58
[8] = TABLE 3A magnesium chloride-containing solution, final pH 7.12
[9] = TABLE 3A magnesium chloride-containing solution, final pH 7.55
[10] = TABLE 3B magnesium chloride-containing solution, pH 6.08
[11] = TABLE 3B magnesium chloride-containing solution, pH 6.15
[12] = TABLE 3B magnesium chloride-containing solution, pH 6.69
[13] = TABLE 3B magnesium chloride-containing solution, pH 7.29
[14] = TABLE 3B magnesium chloride-containing solution, pH 7.54
[15] = TABLE 3C magnesium chloride-containing solution, pH 5.22
[16] = TABLE 3C magnesium chloride-containing solution, pH 6.19
[17] = TABLE 3C magnesium chloride-containing solution, pH 6.65
[18] = TABLE 3C magnesium chloride-containing solution, pH 7.16
[19] = TABLE 3C magnesium chloride-containing solution, pH 7.67
[20] = 0.05% MgCl2 5.27 mM + 0.05% ZnCl2 3.67 mM
[21] = 0.05% MgCl2 5.27 mM + 0.1% ZnCl2 7.34 mM
[22] = 0.1% MgCl2 10.5 mM + 0.05% ZnCl2 3.67 mM
[23] = 0.1% MgCl2 10.5 mM + 0.1% ZnCl2 7.3 mM
[24] = AlCl3 13.5 mM, Conc. (%) 0.180%
[25] = CaGluconate 17.5 mM, Conc. (%) 0.75%
[26] = Mg(CH3COO)2 1.3 mM, Conc. (%) 0.019%
[27] = Mg(CH3COO)2 6.7 mM, Conc. (%) 0.095%
[28] = Mg(CH3COO)2 13.5 mM, Conc. (%) 0.19%
[29] = MgCl2 2.45 mM, Conc. (%) 0.023%
[30] = ZnCl2 13.5 mM, Conc. (%) 0.184%

Solubility of finafloxacin [1, 5]: 0.404 w/v % | Solubility of finafloxacin [1, 6]: 0.727 w/v % | Solubility of finafloxacin [1, 7]: 0.638 w/v % | Solubility of finafloxacin [1, 8]: 0.944 w/v % | Solubility of finafloxacin [1, 9]: 1.244 w/v % | Solubility of finafloxacin [1, 10]: 0.316 w/v % | Solubility of finafloxacin [1, 11]: 0.355 w/v % | Solubility of finafloxacin [1, 12]: 0.628 w/v % | Solubility of finafloxacin [1, 13]: 0.915 w/v % | Solubility of finafloxacin [1, 14]: 1.140 w/v % | Solubility of finafloxacin [1, 15]: 0.130 w/v % | Solubility of finafloxacin [1, 16]: 0.216 w/v % | Solubility of finafloxacin [1, 17]: 0.346 w/v % | Solubility of finafloxacin [1, 18]: 0.501 w/v % | Solubility of finafloxacin [1, 19]: 0.921 w/v %
SMILES: Cl.N#Cc1c(N2C[C@@H]3NCCO[C@H]3C2)c(F)cc2c(=O)c(C(=O)O)cn(C3CC3)c12 [Finafloxacin HCl, finafloxacin monohydrochloride]

C.C.S. (clear colorless solution) pH Range [2, 20]: 4.86-5.87 | Observation [2, 20]: C.C.S | C.C.S. (clear colorless solution) pH Range [2, 21]: 4.62-5.86 | Observation [2, 21]: C.C.S | C.C.S. (clear colorless solution) pH Range [2, 22]: 5.01-5.75 | Observation [2, 22]: C.C.S | C.C.S. (clear colorless solution) pH Range [2, 23]: 4.68-5.88 | Observation [2, 23]: C.C.S | C.C.S. (clear colorless solution) pH Range ([2]; AlCl3 1.3 mM, Conc. (%) 0.018%): Not Formed | Observation ([2]; AlCl3 1.3 mM, Conc. (%) 0.018%): Suspension at pH 3.7-7.4 | C.C.S. (clear colorless solution) pH Range ([2]; AlCl3 6.7 mM, Conc. (%) 0.09%): 2.83-7.46 | Observation ([2]; AlCl3 6.7 mM, Conc. (%) 0.09%): Pale-yellow→at pH 7.58 | C.C.S. (clear colorless solution) pH Range [2, 24]: 2.50-7.24 | Observation [2, 24]: Pale-yellow → at pH 7.41 | C.C.S. (clear colorless solution) pH Range ([2]; CaCl2 1.3 mM, Conc. (%) 0.015%): Not Formed | Observation ([2]; CaCl2 1.3 mM, Conc. (%) 0.015%): Suspension at pH 3.7 | C.C.S. (clear colorless solution) pH Range ([2]; CaCl2 6.7 mM, Conc. (%) 0.075%): Not Formed | Observation ([2]; CaCl2 6.7 mM, Conc. (%) 0.075%): Suspension at pH 3.7 | C.C.S. (clear colorless solution) pH Range ([2]; CaCl2 13.5 mM, Conc. (%) 0.15%): 6.45 | Observation ([2]; CaCl2 13.5 mM, Conc. (%) 0.15%): C.C.S | C.C.S. (clear colorless solution) pH Range ([2]; CaCl2 20.0 mM, Conc. (%) 0.22%): 6.29-6.39 | Observation ([2]; CaCl2 20.0 mM, Conc. (%) 0.22%): C.C.S | C.C.S. (clear colorless solution) pH Range [2, 25]: Not Formed | Observation [2, 25]: Suspension at pH 3.7 | C.C.S. (clear colorless solution) pH Range ([2]; CuCl2 1.3 mM, Conc. (%) 0.018%): Not Formed | Observation ([2]; CuCl2 1.3 mM, Conc. (%) 0.018%): Suspension at pH 3.7-7.4 | C.C.S. (clear colorless solution) pH Range ([2]; CuCl2 6.7 mM, Conc. (%) 0.09%): 5.14-7.26 | Observation ([2]; CuCl2 6.7 mM, Conc. (%) 0.09%): Light blue coloration | C.C.S. (clear colorless solution) pH Range ([2]; CuCl2 13.5 mM, Conc. (%) 0.18%): 5.77-6.11 | Observation ([2]; CuCl2 13.5 mM, Conc. (%) 0.18%): Light blue coloration | C.C.S. (clear colorless solution) pH Range ([2]; KCl 93 mM, Conc. (%) 0.7%): Not Formed | Observation ([2]; KCl 93 mM, Conc. (%) 0.7%): Suspension at pH 3.7-7.4 | C.C.S. (clear colorless solution) pH Range [2, 26]: Not Formed | Observation [2, 26]: Suspension at pH 3.7-7.4 | C.C.S. (clear colorless solution) pH Range [2, 27]: 6.05-7.57 | Observation [2, 27]: C.C.S. | C.C.S. (clear colorless solution) pH Range [2, 28]: 5.21-8.51 | Observation [2, 28]: C.C.S. | C.C.S. (clear colorless solution) pH Range ([2]; MgCl2 1.3 mM, Conc. (%) 0.012%): Not Formed | Observation ([2]; MgCl2 1.3 mM, Conc. (%) 0.012%): Suspension at pH 3.7-7.4 | C.C.S. (clear colorless solution) pH Range [2, 29]: Not Formed | Observation [2, 29]: Suspension at pH 3.7-7.4 | C.C.S. (clear colorless solution) pH Range ([2]; MgCl2 4.91 mM, Conc. (%) […]): 6.68-7.65 | Observation ([2]; MgCl2 4.91 mM, Conc. (%) […]): C.C.S | C.C.S. (clear colorless solution) pH Range ([2]; MgCl2 6.7 mM, Conc. (%) 0.064%): 6.00-9.84 | Observation ([2]; MgCl2 6.7 mM, Conc. (%) 0.064%): C.C.S | C.C.S. (clear colorless solution) pH Range ([2]; MgCl2 13.5 mM, Conc. (%) 0.12%): 5.26-9.61 | Observation ([2]; MgCl2 13.5 mM, Conc. (%) 0.12%): C.C.S | C.C.S. (clear colorless solution) pH Range ([2]; MgSO4 1.3 mM, Conc. (%) 0.016%): Not Formed | Observation ([2]; MgSO4 1.3 mM, Conc. (%) 0.016%): Suspension at pH 3.7-7.4 | C.C.S. (clear colorless solution) pH Range ([2]; MgSO4 6.7 mM, Conc. (%) 0.08%): 6.36-9.23 | Observation ([2]; MgSO4 6.7 mM, Conc. (%) 0.08%): C.C.S | C.C.S. (clear colorless solution) pH Range ([2]; MgSO4 13.5 mM, Conc. (%) 0.16%): 6.29-7.44 | Observation ([2]; MgSO4 13.5 mM, Conc. (%) 0.16%): C.C.S | C.C.S. (clear colorless solution) pH Range ([2]; NaCl 13.5 mM, Conc. (%) 0.076%): Not Formed | Observation ([2]; NaCl 13.5 mM, Conc. (%) 0.076%): Suspension at pH 3.7-7.4 | C.C.S. (clear colorless solution) pH Range ([2]; NaCl 27 mM, Conc. (%) 0.15%): Not Formed | Observation ([2]; NaCl 27 mM, Conc. (%) 0.15%): Suspension at pH 3.7-7.4 | C.C.S. (clear colorless solution) pH Range ([2]; NaCl 120 mM, Conc. (%) 0.79%): Not Formed | Observation ([2]; NaCl 120 mM, Conc. (%) 0.79%): Suspension at pH 3.7-7.4 | C.C.S. (clear colorless solution) pH Range ([2]; NaSO4 21.3 mM, Conc. (%) 0.3%): Not Formed | Observation ([2]; NaSO4 21.3 mM, Conc. (%) 0.3%): Suspension at pH 3.7-7.4 | C.C.S. (clear colorless solution) pH Range ([2]; ZnCl2 1.3 mM, Conc. (%) 0.018%): Not Formed | Observation ([2]; ZnCl2 1.3 mM, Conc. (%) 0.018%): Suspension at pH 3.7-7.4 | C.C.S. (clear colorless solution) pH Range ([2]; ZnCl2 6.7 mM, Conc. (%) 0.09%): 4.90-5.47 | Observation ([2]; ZnCl2 6.7 mM, Conc. (%) 0.09%): C.C.S | C.C.S. (clear colorless solution) pH Range [2, 30]: 4.50-5.55 | Observation [2, 30]: C.C.S | C.C.S. (clear colorless solution) pH Range ([2]; ZnCl2 20.0 mM, Conc. (%) 0.27%): 5.06-5.87 | Observation ([2]; ZnCl2 20.0 mM, Conc. (%) 0.27%): C.C.S | C.C.S. (clear colorless solution) pH Range ([2]; ZnSO4 13.5 mM, Conc. (%) 0.22%): 5.65 | Observation ([2]; ZnSO4 13.5 mM, Conc. (%) 0.22%): C.C.S | solubility [1, 5]: 3700 µg/mL (≈ 9.29 mM) | solubility [1, 6]: 6660 µg/mL (≈ 16.7 mM) | solubility [1, 7]: 5850 µg/mL (≈ 14.7 mM) | solubility [1, 8]: 8650 µg/mL (≈ 21.7 mM) | solubility [1, 9]: 11400 µg/mL (≈ 28.6 mM) | solubility [1, 10]: 2900 µg/mL (≈ 7.28 mM) | solubility [1, 11]: 3250 µg/mL (≈ 8.16 mM) | solubility [1, 12]: 5760 µg/mL (≈ 14.5 mM) | solubility [1, 13]: 8390 µg/mL (≈ 21.1 mM) | solubility [1, 14]: 10400 µg/mL (≈ 26.2 mM) | solubility [1, 15]: 1190 µg/mL (≈ 2.99 mM) | solubility [1, 16]: 1980 µg/mL (≈ 4.97 mM) | solubility [1, 17]: 3170 µg/mL (≈ 7.96 mM) | solubility [1, 18]: 4590 µg/mL (≈ 11.5 mM) | solubility [1, 19]: 8440 µg/mL (≈ 21.2 mM)
SMILES: N#Cc1c(N2C[C@@H]3NCCO[C@H]3C2)c(F)cc2c(=O)c(C(=O)O)cn(C3CC3)c12 [Finafloxacin, 8-cyano-1-cyclopropyl-6-fluoro-7-[(4aS,7aS)-hexahydropyrrolo[3,4-b]-1,4-oxazin-6(2H)-yl]-1,4-dihydro-4-oxo-3-quinoline carboxylic acid]

C.C.S. (clear colorless solution) pH Range ([4]; CaCl2 10.0 mM, Conc. (w/v %) 0.08%): 7.31-7.55 | C.C.S. (clear colorless solution) pH Range ([4]; MgCl2 10.0 mM, Conc. (w/v %) 0.09%): 6.97-7.52 | C.C.S. (clear colorless solution) pH Range ([4]; ZnCl2 10.0 mM, Conc. (w/v %) 0.13%): 6.61-7.31
SMILES: COc1c(N2CCNC(C)C2)c(F)cc2c(=O)c(C(=O)O)cn(C3CC3)c12 (stereo not shown) [GATIFLOXACIN, gatifloxacin]
literature-reported aqueous solubility [3]: 0.21 w/v %
